From US20190336537A1, “GENERATING ATRIAL AND VENTRICULAR CARDIOMYOCYTE LINEAGES FROM HUMAN PLURIPOTENT STEM CELLS” (UNIVERSITY HEALTH NETWORK, priority 2016, published 2019)

Tests used:
[1] = system: HES3 NKX2-5:GFP reporter hESC line derived cardiomyocytes; assay: qRT-PCR analysis of atrial and ventricular gene expression in day 20 hPSC-derived cardiomyocytes; assay type: cell-based, human; conditions: receptor-specific agonist added in place of RA to day 3 cultures
[2] = system: HES2 human embryonic stem cell derived EBs; assay: ROH/RA response of HES2-derived EBs (day 20 flow cytometry and qRT-PCR); assay type: cell-based; conditions: treated days 3 to 5
Source text: (§1) To determine if the approach for optimizing atrial and ventricular differentiation based on ALDH activity and CD235a expression is broadly applicable, we next used it to generate these cardiomyocyte populations from the HES2 human embryonic stem cell and the MSC-iPS1 induced pluripotent stem cell lines. Titration studies identified 5B/2A and 5B/6A as optimal for atrial and ventricular inductions, respectively, for HES2 cells and 4B/4A as optimal for ventricular induction for MSCiPSC1 cells (FIGS. 7A, 7B, 7E, and 7F; Mendeley http://dx.doi.org/10.17632/7z7d5v2c3w.1). Optimization of atrial induction from the MSC-iPSC1 cells was more challenging, as all cytokine combinations promoted the development of a substantial CD235a+ population. One interpretation of these patterns is that the MSC-iPS1 cells have a high level of endogenous Nodal/Activin A signaling, resulting in the development of some CD235a+ cells under all conditions. To test this, we added the Nodal/Activin A/transforming growth factor beta (TGF-beta) inhibitor SB-431542 (SB) from days 3 to 5 to cells induced with 4B/1A.
(§2) For cardiac differentiation, we used a modified version of our embryoid body (EB)-based protocol (Kattman et al., 2011). hPSC populations at 80%-90% confluence were dissociated into single cells (TrypLE, ThermoFisher) and re-aggregated to form EBs in StemPro-34 media (ThermoFisher) containing penicillin/streptomycin (1%, ThermoFisher), L-glutamine (2 mM, ThermoFisher), trans-ferrin (150 μg/ml, ROCHE), ascorbic acid (50 μg/ml, Sigma), and monothioglycerol (50 μg/ml, Sigma), ROCK inhibitor Y-27632 (10 μM, TOCRIS) and rhBMP4 (1 ng/ml, R&D) for 18 h on an orbital shaker. At day 1, the EBs were transferred to mesoderm induction media consisting of StemPro-34 with above supplements (-ROCK inhibitor Y-27632) and rhBMP4, rhActivinA (R&D) and rhbFGF (5 ng/ml, R&D) at the indicated concentrations. At day 3, the EBs were harvested, washed with IMDM and transferred to cardiac mesoderm specification media consisting of StemPro-34, the Wnt inhibitor IWP2 (1 μM, TOCRIS) and rhVEGF (10 ng/mL, R&D). At day 5, the EBs were transferred to Stem Pro-34 with rhVEGF (5 ng/ml) for another 7 days and then to Stem Pro-34 media without additional cytokines for further 8 days. At day 20, HES3-NKX2-5gfp/w-derived cardiomyocytes were analyzed and isolated based on the expression of NKX2-5:GFP and SIRPa and a lack of CD90. Cardiomyocytes generated from non-transgenic hPSC lines were analyzed and isolated as SIRPa+CD90− populations. Media was changed every 3 days. Cultures were incubated in a low oxygen environment (5% CO2, 5% O2, 90% N2) for first 12 days and a normoxic environment (5% CO2) for the following 8 days in total of 20 days. […]

[3] = system: MSC-iPS1 induced pluripotent stem cell line derived EBs; assay: ROH/RA response of MSC-iPS1-derived EBs (day 20 flow cytometry and qRT-PCR); assay type: cell-based, human; conditions: treated days 3 to 5
Source text: as §1, §2

[4] = system: HES3 NKX2-5:GFP hESC-derived mesoderm; assay: Specification of mesoderm populations to an atrial fate by ROH or RA (day 20 flow cytometry and qRT-PCR); assay type: cell-based, human; conditions: for atrial specification (MLC2V+, IRX4, KCNJ3, NR2F2): treated days 3-5
Experimental: To determine if the ALDH^+ cells can synthesize RA, the ALDH^+PDGFRalpha^+ and ALDH^− PDGFRalpha^+ fractions were isolated from the day 4 3B/2A-induced population, and the cells were cultured as aggregates in retinol (ROH), RA, or DMSO (control) for 24 hr (FIGS. 3A and 3B). ALDH1A2 expression segregated to the ALDH^+ fraction, confirming the validity of aldefluor-based sorting strategy for isolating RALDH2-expressing cells (FIG. 3C).
(§3) For cardiac differentiation, we used a modified version of our embryoid body (EB)-based protocol (Kattman et al., 2011). hPSC populations at 80%-90% confluence were dissociated into single cells (TrypLE, ThermoFisher) and re-aggregated to form EBs in StemPro-34 media (ThermoFisher) containing penicillin/streptomycin (1%, ThermoFisher), L-glutamine (2 mM, ThermoFisher), trans-ferrin (150 μg/ml, ROCHE), ascorbic acid (50 μg/ml, Sigma), and monothioglycerol (50 μg/ml, Sigma), ROCK inhibitor Y-27632 (10 μM, TOCRIS) and rhBMP4 (1 ng/ml, R&D) for 18 h on an orbital shaker. At day 1, the EBs were transferred to mesoderm induction media consisting of StemPro-34 with above supplements (-ROCK inhibitor Y-27632) and rhBMP4, rhActivinA (R&D) and rhbFGF (5 ng/ml, R&D) at the indicated concentrations. At day 3, the EBs were harvested, washed with IMDM and transferred to cardiac mesoderm specification media consisting of StemPro-34, the Wnt inhibitor IWP2 (1 μM, TOCRIS) and rhVEGF (10 ng/mL, R&D). At day 5, the EBs were transferred to Stem Pro-34 with rhVEGF (5 ng/ml) for another 7 days and then to Stem Pro-34 media without additional cytokines for further 8 days. At day 20, HES3-NKX2-5gfp/w-derived cardiomyocytes were analyzed and isolated based on the expression of NKX2-5:GFP and SIRPa and a lack of CD90. Cardiomyocytes generated from non-transgenic hPSC lines were analyzed and isolated as SIRPa+CD90− populations. Media was changed every 3 days. Cultures were incubated in a low oxygen environment (5% CO2, 5% O2, 90% N2) for first 12 days and a normoxic environment (5% CO2) for the following 8 days in total of 20 days. The EBs were cultured in ultra-low attachment 6-well dishes (Corning) throughout the differentiation for maintaining suspension cultures.
Following optimization, either ATRA (0.5 μM, Sigma) or retinol (2 μM, Sigma) was included in the cardiac mesoderm specification media from days 3-5 for the generation of atrial cardiomyocytes.
(§4) Day 2-6 EBs were dissociated with TrypLE for 2-4 min at room temperature (RT). Day 20 EBs were dissociated by incubation in Collagenase type 2 (0.5 mg/ml, Worthington) in HANKs buffer overnight at RT followed by TrypLE treatment as described above. The following antibodies were used for staining: anti-PDGFRa-PE (R&D Systems, 3:50), anti-CD235a-APC (BD PharMingen, 1:100), antiSIRPa-PeCy7 (Biolegend, 1:1000), anti-CD90-APC (BD PharMingen, 1:1000), anticardiac isoform of CTNT (ThermoFisher Scientific, 1:2000), or anti-myosin light chain 2 (Abcam, 1:1000). For unconjugated primary antibodies, the following secondary antibodies were used for detection: goat anti-mouse IgG-APC (BD Pharmigen, 1:250), or donkey anti-rabbit IgG-PE (Jackson ImmunoResearch, 1:250). Detailed antibody information is described in Table 2.
The Aldefluor™ assay (STEMCELL Technologies) was performed according to the instruction provided by the manufacturer. Briefly, day 2-6 EBs were dissociated as described above. […] Stained cells were analyzed as described above. […]

[5] = system: HES3 NKX2-5:GFP hESC-derived mesoderm; assay: as above; assay type: cell-based, human; conditions: day 4, 5B/4A induced
[6] = system: MSC-iPS1 induced pluripotent stem cell line derived EBs; assay: Flow cytometry of ALDH activity and CD235a in MSC-iPS1-derived EBs treated with SB-431542; assay type: cell-based, human; conditions: SB days 3 to 5, cells induced with 4B/1A
Source text: as §1, §4
The Aldefluor™ assay (STEMCELL Technologies) was performed according to the instruction provided by the manufacturer. […] Stained cells were analyzed as described above. […]

[7] = system: HES3 NKX2-5:GFP hESC-derived day 20 EB populations; assay: Flow cytometric and immunostaining analyses of day 20 EB populations (CTNT, MLC2V, NKX2-5, COUPTFII); assay type: cell-based, human
Experimental: as §3, §4
For cell-surface marker analyses, cells were stained for 30 min at 4 degrees C. in FACS buffer consisting of PBS with 5% fetal calf serum (FCS) (Wisent) and 0.02% sodium azide. For intracellular staining, cells were fixed for 15 min at 4 degrees C. with 4% PFA in PBS followed by permeabilization using 90% methanol for 20 min at 4 degrees C. Cells were washed with PBS containing 0.5% BSA (Sigma) and stained with unconjugated primary antibodies in FACS buffer overnight at 4 degrees C. Stained cells were washed with PBS with 0.5% BSA and stained with secondary antibodies in FACS buffer for 1 h at 4 degrees C.
Stained cells were analyzed using the LSR II Flow cytometer (BD). For cell sorting, stained cells were kept in IMDM with 0.5% FCS and sorted using Influx (BD), FACSAriall (BD), MoFlo-XDP (BD) and FACSAria Fusion (BD) at the Sickids/UHN flow cytometry facility. Data were analyzed using FlowJo software (Tree Star).
Day 20 EBs were dissociated as described above and the cells plated onto 12 mm cover glasses (VWR) pre-coated with matrigel (25% v/v, BD). Cells were cultured for 3-5 days to enable the formation of adherent cell monolayers. Cells were fixed with
4% PFA in PBS for 10 min at room temperature and permeabilized with PBS containing 0.3% TritonX, 200 mM Glycine (Sigma) for 20 min at RT. Cells were blocked with PBS containing 10% FCS, 0.1% TritonX, and 2% BSA. […]

[8] = system: hPSC-derived day 2-6 EB mesoderm; assay: Aldefluor assay and flow cytometry of mesoderm (ALDH activity, PDGFRalpha, CD235a); assay type: cell-based, human
Experimental: as §4
The Aldefluor™ assay (STEMCELL Technologies) was performed according to the instruction provided by the manufacturer. Briefly, day 2-6 EBs were dissociated as described above. Cells were stained at a concentration of 2×10^6 cells/ml in the aldefluor assay buffer containing 0.1% BSA and BAAA substrate (0.12 mg/ml) for 60 min at 37 degrees C. The aldehyde dehydrogenase inhibitor DEAB ([…]) was added to the negative control sample. Cells were washed with cold media consisting of IMDM with 5% FCS and 10% aldefluor assay buffer. Cells were then stained with antibodies to cell surface markers at the concentrations indicated above in cold wash media for additional 20 min at 4 degrees C. Stained cells were analyzed as described above. During analyses, the cells were kept in cold wash media. For cell sorting, FCS was replaced with KnockOut™ serum replacement (ThermoFisher) to avoid any impact of serum-contained cy-tokines on the cell differentiations. Cells were maintained in StemPro-34 containing 10% aldefluor assay buffer throughout the sorting procedure. The sorted cells were collected and re-aggregated in StemPro-34 containing ROCK inhibitor (10 μM), IWP2 (0.5 μM) and rhVEGF (5 ng/ml).

[9] = increasing Activin A from 2 to 12 ng/ml, BMP4 10 ng/mL
[10] = reducing Activin A, constant BMP4 (10 ng/mL)
[11] = reducing BMP4 from 10 to 3 ng/mL, Activin A 2 ng/mL

CCCCCCCCc1ccc(-c2ccc(C(=O)O)cc2)cc1 [AC55649]
MYL2 expression in day 20 CTNT+ populations [1]: reduction

CC1(C)CCC(C)(C)c2cc(C(=O)Nc3ccc(C(=O)O)cc3)ccc21 [AM580]
MYL2 expression in day 20 CTNT+ populations [1]: reduction

O=C(O)c1ccc2cc(-c3ccc(O)c(C45CC6CC(CC(C6)C4)C5)c3)ccc2c1 [CD437]
MYL2 expression in day 20 CTNT+ populations [1]: reduction

CC1=C(/C=C/C(C)=C/C=C/C(C)=C/CO)C(C)(C)CCC1 [ROH, retinol]
response of ALDH+ mesoderm (atrial expression profile) ([2]; HES2, 5B/2A induced): responded to both ROH and RA | response of CD235a+ mesoderm (MLC2V content, MYL2, IRX4, KCNJ3, NR2F2) ([2]; HES2, 5B/6A induced): Neither CD235a+ mesoderm population responded | response of ALDH+ mesoderm (atrial expression profile) ([3]; MSC-iPS1, 4B/1A+SB induced): responded to both ROH and RA | response of CD235a+ mesoderm (MLC2V content, MYL2, IRX4, KCNJ3, NR2F2) ([3]; MSC-iPS1, 4B/4A induced): Neither CD235a+ mesoderm population responded | atrial specification (MLC2V+, IRX4, KCNJ3, NR2F2) ([4]; 3B/2A-induced EBs): responded to ROH and generated an atrial-like cardiomyocyte population | atrial specification (MLC2V+, IRX4, KCNJ3, NR2F2) ([4]; 5B/12A-induced EBs): did not respond | atrial specification (MLC2V+ frequency, IRX4, KCNJ3) ([4]; ALDH+PDGFRalpha+ fraction, day 4, 3B/2A induced, 24 hr treatment): generated an atrial-like cardiomyocyte population | atrial specification (MLC2V+, IRX4, NPPA, KCNJ3, NR2F2) ([5]; CD235a+ALDH− fraction): no response | atrial specification (MLC2V+, IRX4, NPPA, KCNJ3, NR2F2) ([5]; CD235a−ALDH+ fraction): gave rise to an atrial-like cardio-myocyte population

NC(=O)c1ccc(-c2nc(-c3ccc4c(c3)OCO4)c(-c3ccccn3)[nH]2)cc1 [SB-431542]
CD235a+ cells [6]: reduction | CTNT+MLC2V− cardiogenic potential of the mesoderm [6]: without affecting | size of the ALDH+ population [6]: increase in the size

B1: Activin A: Recombinant human ActivinA (R&D), activates nodal signal transduction (protein, UniProt P08476 311-426, looked up)
Inhibin beta A chain: GLECDGKVNICCKKQFFVSFKDIGWNDWIIAPSGYHANYCEGECPSHIAGTSGSSLSFHSTVINHYRMRGHSPFANLKSCCVPTKLRPMSMLYYDDGQNIIKKDIQNMIVEECGCS
modifications: Inhibin beta A chain
proportion of MLC2V+CTNT+ cells [7, 9]: increase in the proportion | proportion of CTNT+ cardiomyocytes generated [7, 10]: decrease | ALDH+ population [8, 9]: elimination | size of the day 4 CD235a+ population [8, 9]: increase in the size | size of the ALDH+PDGFRalpha+ population at day 4 [8, 10]: substantial increase

B2: BMP4: Bone Morphogenetic Protein 4, recombinant human (R&D) (protein, UniProt P12644 293-408, looked up)
Bone morphogenetic protein 4: SPKHHSQRARKKNKNCRRHSLYVDFSDVGWNDWIVAPPGYQAFYCHGDCPFPLADHLNSTNHAIVQTLVNSVNSSIPKACCVPTELSAISMLYLDEYDKVVLKNYQEMVVEGCGCR
frequency of MLC2V+CTNT+ cells at day 20 ([7]; BMP4 20 ng/mL, Activin A 12 ng/mL): lowest frequency | frequency of CTNT+ cells at day 20 [7, 11]: increase the frequency | size of the CD235a+ population ([8]; BMP4 3-20 ng/mL, Activin A 12 ng/mL): little impact | size of the ALDH+PDGFRalpha+ population [8, 11]: did not influence
